This note sets out measurements from article PMC6615598, “Novel antibiotics effective against gram-positive and -negative multi-resistant bacteria with limited resistance” (PLoS Biology, 2019).

Structures are written as SMILES. “And” between values parts separate entries of the source, which are not always exact repeats. Identical values can stand only once. Starred links: 1 amine or outer side, 2 acyl side, 3 side chain; linkers in the order of their positions; H or OH if unused. Non-standard residues stand in square brackets, D forms with d. Residues, ends and D or L forms follow the SMILES beside them. azaβ3(1Nal) = O=C(CN(Cc1cccc2ccccc12)N[*:1])[*:2]

In one assay the test system is S. aureus 33845. The experiment in a line: microbe, parasite or virus in culture. The settings on record: 33845. On the procedure: (10−4 M final concentrations). At selected time intervals, 100 μl of reaction mixture was collected, quenched by 200 μl 95% EtOH, and adjusted at pH 2 to prevent peptide adsorption to serum proteins. […] Supernatants were analyzed by RP-HPLC on an Xbridge C18 column with a linear gradient of water, 0.08% TFA, and acetonitrile with 1% TFA. HPLC peak areas were used to calculate the percentages of intact compound remaining at the various time points. MIC and MBC values were determined in triplicate in many ESKAPE clinical isolates, including a dozen MDR S. aureus, by the broth microdilution method. Peptidomimetics and antibiotics were assayed in a concentration range of 1 to 128 μM. The bacterial inoculum (5 × 10^5 colony-forming units [CFUs]/well) was prepared in MHB or CAMHB (150 μl). A Biotek Synergy 2 spectrophotometer was used to record the results after 18–20 h incubation at 35°C (±2°C). […] After every hour of culture for 4 h, serial dilutions were plated on BHI plates and incubated overnight at 37°C, and then the CFUs were counted and expressed as log CFU/ml. Phosphate-buffered saline (PBS)-exposed S. aureus MRSA was included as a control.
Supplementary file pbio.3000337.s007.docx: S1 Table Antibacterial activity of the 4 peptidomimetics focusing on 9 S. aureus MDR clinical isolates. Clinical isolates BCB/POE and 740404 DUN are from human sepsis. The other strains are from catheter infections or suppurating wounds. Brilacidin was used as a control. MDR, multidrug resistant. (DOCX) Click here for additional data file.

The next assay relates to S. aureus MRSA. Nature of the assay: Cutaneous abscess mouse model (lesion size, CFU). Format: in vivo, mice. On the procedure: For the cutaneous abscess model, the mice were randomly divided into 5 sets. The mice were anesthetized with isoflurane, their dorsal fur shaved, and their skin disinfected with 70% ethanol. An overnight culture of S. aureus MRSA or P. aeruginosa LESB58 was washed with 0.9% NaCl, and then a subcutaneous injection of 2 × 10^9 CFUs and an equal amount of sterile Cytodex microcarrier beads (20 mg.ml^−1, Sigma) for S. aureus MRSA, or 10^8 CFUs for P. aeruginosa were injected into the shaved area. […] Mice were monitored every day and then euthanized with CO2 on Day 6 or on Day 3. Abscesses were excised, measured, and homogenized in PBS using an Ultra-Turax. Serial dilutions of the samples were plated on BHI (MRSA) or 2YT medium (LESB58) plates and then incubated overnight at 37°C. Afterward, the CFUs were counted and expressed as log CFU/ml. Dermonecrosis areas were calculated according to the formula π × L × W. ATP levels were determined with an ATP assay kit (Promega) according to manufacturer instructions on sets of 5 colonies harboring the SCV phenotype, and sets of 5 colonies harboring a normal phenotype, after growth on BHI plates.

Assay [1] concerns E. coli ML-35p. The experiment in a line: Outer membrane permeability, nitrocefin cleavage. The format is cell-based. The note with it: concentration near MIC. On the procedure: (§1) Outer and inner membrane permeability was determined on E. coli ML-35p, a lactose permease-deficient strain [8]. Permeation assays were carried out on 100 μl MHB from bacteria cultures grown to 0.15 OD600 (10^7 CFU/ml). Nitrocefin (20 μg/ml) was added to the tested molecules at a concentration near to their MICs, and cleavage was monitored by light absorption at 500 nm (outer membrane monitoring). Inner membrane monitoring of cleavage of ONPG (100 μg/ml) and substrate was monitored at 420 nm. Polymyxin B was a positive control, while a bacterial suspension in MHB was the negative control. Permeation assays were also performed on gram-positive S. aureus membranes (MSSA and MRSA) by fluorescence assay with SYTO Green nucleic acid stain (Life Technologies) in black flat-bottom 96-well microtiter plates (Greiner) in biological triplicate. Bacteria were grown to 0.3–0.4 OD600 in CAMHB at 37°C and centrifuged at 3,500 tr/min for 10 min. The pellet was washed and dissolved in PBS to an absorbance of 0.4 at 600 nm (approximately 2.10^8 CFU/ml). […] The amount of 50 μL of bacteria/SYTO Green mixture was added to each well containing compounds serially diluted in PBS, and fluorescence was measured at 37°C for up to 12 h using a spectrophotometer (BIOTEK, Tungsten-Halogen Lamp) with 485 nm excitation and 525 nm emission wavelengths.

Assay [2] concerns E. coli ML-35p. The experiment in a line: Inner membrane permeability, ONPG cleavage. Format: cell-based. The settings on record: concentration near MIC. As for the experimental part: as §1
Setting [3] is: mice, MRSA subcutaneous, single IV 1.5 mg.kg^−1 at 24 h, 6 days post infection.

`CC(C)[C@@H]1NC(=O)[C@H](CCCNC(=N)N)NC(=O)[C@H](CCCNC(=N)N)NC(=O)CN(Cc2cccc3ccccc23)NC(=O)[C@H](Cc2ccccc2)NC(=O)CN(Cc2cccc3ccccc23)NC(=O)[C@H](CCCCN)NC1=O` [Pep19] (cyclo([azaβ3(1Nal)]F[azaβ3(1Nal)]RRVK)): the MIC in the assay with S. aureus 33845 is 16 mg/L^-1. Further, the “CFU counts per abscess, SCV” value in the assay on S. aureus MRSA (cutaneous abscesses from MRSA in mice, IV 24 h post-infection, 1.5 mg.kg-1, SCV, individual values) was 5.62 log Cfu/ml and 5.85 log Cfu/ml and 5.73 log Cfu/ml and 5.93 log Cfu/ml and 5.11 log Cfu/ml and 4.73 log Cfu/ml and 4.55 log Cfu/ml and 5.5 log Cfu/ml and 5.67 log Cfu/ml. The Area of dermonecrosis in the assay on S. aureus MRSA (cutaneous abscesses from MRSA in mice, IV 24 h post-infection, 1.5 mg.kg-1, individual values) was 165.8 mm2 and 78.8 mm2 and 98.9 mm2 and 174.7 mm2 and 106.7 mm2 and 160.2 mm2 and 96.4 mm2 and 106.4 mm2 and 176.2 mm2. For the same molecule, in the assay on S. aureus MRSA (setting [3]), the “Bacterial content of skin abscess” value is “strong reduction” and the Skin abscess volume result was “strong reduction”. In the assay with E. coli ML-35p [1], the Outer membrane permeation result is reported as “most active”. For the same molecule, the Inner membrane permeation result with E. coli ML-35p [2] was “most active”.
